Laboratory results published in patent US9078897B1, “Concentrated, inhalable antibiotic formulation” (ARADIGM CORPORATION, priority 2006, dated 2015).

How the values were obtained:
P. aeruginosa = conditions: cited from earlier work
IL-1 = IL-1 levels in lungs after 14 days of inhalation; type: in vivo, rats; conditions: then 28 day recovery evaluation
Excerpt: The explanation for this surprising effect may be that the presence of free ciprofloxacin in the lung attenuates the release of cytokines which attract macrophages into the lung.

SMILES	activity against P. aeruginosa (P. aeruginosa)	levels of IL-1 (IL-1)
NC[C@H]1O[C@H](O[C@H]2[C@H](O)[C@@H](O[C@H]3O[C@H](CO)[C@@H](O)[C@H](N)[C@H]3O)[C@H](N)C[C@@H]2N)[C@H](N)C[C@@H]1O [tobramycin]	possesses activity	–
CC[C@H]1OC(=O)[C@H](C)[C@@H](O[C@H]2C[C@@](C)(OC)[C@@H](O)[C@H](C)O2)[C@H](C)[C@@H](O[C@@H]2O[C@H](C)C[C@H](N(C)C)[C@H]2O)[C@](C)(O)C[C@@H](C)CN(C)[C@H](C)[C@@H](O)[C@]1(C)O [azithromycin]	no direct activity	–
O=C(O)c1cn(C2CC2)c2cc(N3CCNCC3)c(F)cc2c1=O [free ciprofloxacin, ciprofloxacin]	–	return to baseline values
